Data reported in patent US12576044B2, “Treatment of Alzheimer's disease” (priority 2015, dated 2026).
Where two headings read alike, the source gives them in different places.

How the values were obtained:
[1] = test system: superactivated platelets (SAPs); test: SAP inhibition by combinatorial drug treatment (flow cytometry of platelet rich plasma activated with thrombin and convulxin); type: cell-based, human; details: 10 μM, 30 minutes at 37° C., normalized relative to Control
Description: A venipuncture sample of 10 mL of blood is obtained from each patient. Of the 10 mL, a 3 mL aliquot of blood is added to a tube containing 0.5 mL of acid-citrate-dextrose solution (38 mM citric acid, 75 mM sodium citrate, 135 mM glucose) to prevent clotting. […] After centrifuging at 1100 rpm for 10 minutes at room temperature, platelet rich plasma (PRP), which is the upper layer, is removed. The PRP is transferred to a new tube, leaving about 0.5 mL above the buffy coat layer. The PRP-containing tube is incubated with 10 μL of thrombin and convulxin, two agonists that activate the platelets, for five minutes. Platelets are then treated with biotinylated fibrinogen and stained with the following fluorophores: APC-streptavidin (APC-SA), FITC-PAC1, and PE-anti-CD41. PE-anti-CD41 recognizes the platelet-specific, transmembrane protein CD41. FITC-PAC1 identifies activated platelets by recognizing […] which increases its expression at the surface upon activation. APC-SA recognizes superactivated platelets that more readily bind the biotinylated fibrinogen to their surface.
All fluorophores are excited at 488 nm by argon laser of the flow cytometer. Their emission spectra are well separated, thereby allowing simultaneous, multi-color immunofluorescence measurements.
Each sample is analyzed by a Beckman Coulter CyAn flow cytometer (Beckman Coulter, Fullerton, CA). Results are analyzed by the Summit program (Beckman Coulter). Data analysis is conducted for SAPs after flow cytometry using the Summit program to determine the relative percentages of each of these groups per sample. The SAPs are expressed as a percentage of the total number of events in the sample.
Isolation and flow cytometry of SAPs was performed according to the procedure described in Example 1, above.
Aliquots of platelet rich plasma (PRP) were incubated with aqueous saline solutions of resveratrol only, quercetin only, […], and with an admixture of resveratrol, quercetin and curcumin for a time period of 30 minutes at 37° C. Thereafter the obtained PRP samples were irradiated by an argon laser at […]. Multi-color immunofluorescence was noted, and analyzed as described in Example 1, above.

[2] = target: T1, monomeric beta-amyloid 1-42 (Homo sapiens, UniProt P05067); test: Thioflavin-T (ThT) assay, aggregate-prevention activity; type: biochemical; details: for aggregate-prevention activity: curcumin 0.1, 1.0 or 10 μM, resveratrol 10 μM, quercetin 10 μM, 60 minutes; for aggregate-prevention compared with positive control phenol red (PhR): curcumin at 1 μM, resveratrol at 10 μM
T1 construct: 5 ng monomeric beta-amyloid (1-42) (Anaspec, Fremont, CA); purchased Anaspec, Fremont, CA
T1 sequence (P05067 672-713 limits assumed): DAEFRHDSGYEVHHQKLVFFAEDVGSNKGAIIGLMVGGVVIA
Source text: (§1) (A) De-aggregation activity of curcumin (C). […] (B) Aggregate-prevention activity of resveratrol (R), quercetin (Q), and curcumin (C).
(§2) The formation of beta-amyloid plaques in the brain is a major hallmark of Alzheimer's disease and is widely considered to be a key initial step in the disease progression. The aim of clinical trials for Alzheimer's disease has historically been to deaggregate or prevent the aggregation of beta-amyloid. Plaques are formed by aggregation of soluble monomeric beta-amyloid into insoluble oligomers, protofibrils, fibrils, and plaques. […] The most common method to evaluate beta-amyloid aggregation is the thioflavin-T (ThT) assay. ThT is a fluorescent probe that binds to beta-amyloid fibrils with specificity and is measurable at 482 nm when excited at 450 nm.
(§3) Curcumin (C) was evaluated at 0.1, 1.0, and 10 μM.

[3] = test system: superactivated platelets (SAPs); test: In vitro synergy analysis: SAP formation with and without R, Q, C combinations, flow cytometry, Combination Index (Chou-Talalay); type: cell-based, human
Description: The “effective amount” or “therapeutically effective amount” also may be determined by using methods known in the art such as the in vitro flow cytometry assay to evaluate the effectiveness of multiple RQC combinations on platelet activation. All possible combinations of pre-defined “low”, “medium”, and “high” doses of R, Q, and C, respectively, are tested to determine the optimal dose combination. […] A venipuncture sample of 10 mL of blood is obtained from each patient. Of the 10 mL, a 3 mL aliquot of blood is added to a tube containing 0.5 mL of acid-citrate-dextrose solution (38 mM citric acid, 75 mM sodium citrate, 135 mM glucose) to prevent clotting. […] The PRP is transferred to a new tube, leaving about 0.5 mL above the buffy coat layer. […] Platelets are then treated with biotinylated fibrinogen and stained with the following fluorophores: APC-streptavidin (APC-SA), FITC-PAC1, and PE-anti-CD41. PE-anti-CD41 recognizes the platelet-specific, transmembrane protein CD41. FITC-PAC1 identifies activated platelets by recognizing […] which increases its expression at the surface upon activation. APC-SA recognizes superactivated platelets that more readily bind the biotinylated fibrinogen to their surface. Each sample is analyzed by a Beckman Coulter CyAn flow cytometer (Beckman Coulter, Fullerton, CA). Results are analyzed by the Summit program (Beckman Coulter). […] Thus, abnormally high SAP levels are indicative of microvascular disease. […] To evaluate synergistic drug effects, the Combination Index (CI) theorem derived by Chou-Talalay was calculated for each combination product of R, Q, and C. The CI is useful in quantifying levels of synergism and antagonism. The theorem is based on the median-effect equation to provide a common link between a single entity and multiple entities. […] Baseline differences in untreated SAP levels can be adjusted for by evaluating the proportion of total platelets that are sensitive or resistant to treatment (Table 16). This technique adjusts for overall differences in SAP levels between various disease types. […] In AD subjects (n=9), the total number of platelets sensitive to RQC was higher than in healthy controls (n=20). […] The number of sensitive platelets was higher in AD subjects with higher SAP levels while the number of resistant platelets remained largely equivalent.

[4] = test system: beta-amyloid fibrils; details: cited from earlier work
[5] = test system: beta-amyloid oligomers; details: cited from earlier work
[6] = target: beta-amyloid (1-42) oligomers (Homo sapiens, UniProt P05067); test: Thioflavin-T (ThT) assay, de-aggregation of pre-aggregated beta-amyloid; type: biochemical; details: for reduced aggregation of pre-aggregated beta-amyloid (1-42): over 8 days, 37° C.; for de-aggregation activity (words): 0.1, 1.0, 10 μM, 2 hours, 3 days, 8 days
Sequence of beta-amyloid (1-42) oligomers (P05067 672-713 limits assumed): as above
Source text: as §1, §2, §3

## Oc1ccc(/C=C/c2cc(O)cc(O)c2)cc1 [Resveratrol, 3,5,4′-trihydroxy-trans-stilbene]
[1]
  % Reduction in SAPs: 46.6%
  % SAPs: 53.4%
[2]
  aggregate-prevention activity: inhibited the formation of new beta-amyloid aggregates
  aggregate-prevention compared with positive control phenol red (PhR): approximately as effective as the positive control phenol red
[3]; R 1 μM, AD patient
  % Change: −9%
  SAP %: 33.6%
[3]; R 5 μM, AD patient
  % Change: −17%
  SAP %: 30.5%
[3]; R 10 μM, AD patient
  % Change: −19%
  SAP %: 29.9%
[3]; control subject, R 1 μM
  % Change: −9%
  SAP %: 33.9%
[3]; control subject, R 5 μM
  % Change: −24%
  SAP %: 28.2%
[3]; control subject, R 10 μM
  % Change: −29%
  SAP %: 26.3%

## O=c1c(O)c(-c2ccc(O)c(O)c2)oc2cc(O)cc(O)c12 [Quercetin, 3,3′,4′5,7-pentahydroxy-2-phenylchromen-4-one]
In vivo; cited from earlier work
  Half-life: 3 to 17 h
oral, estimation; cited from earlier work
  Bioavailability: 0.2-0.3%
oral; estimation; cited from earlier work
  Bioavailability: 0.2-0.3%
[1]
  % Reduction in SAPs: 77.8%
  % SAPs: 22.2%
[2]
  aggregate-prevention activity: inhibited the formation of new beta-amyloid aggregates
[3]; Q 1 μM, AD patient
  % Change: −7%
  SAP %: 34.3%
[3]; Q 5 μM, AD patient
  % Change: −27%
  SAP %: 26.7%
[3]; Q 10 μM, AD patient
  % Change: −44%
  SAP %: 20.6%
[3]; control subject, Q 1 μM
  % Change: −8%
  SAP %: 34.2%
[3]; control subject, Q 5 μM
  % Change: −13%
  SAP %: 32.5%
[3]; control subject, Q 10 μM
  % Change: −23%
  SAP %: 28.6%

## COc1cc(/C=C/C(=O)CC(=O)/C=C/c2ccc(O)c(OC)c2)ccc1O [Curcumin, (1E,6E)-1,7-bis(4-Hydroxy-3-methoxyphenyl)-1,6-heptadiene-3,5-dione]
[2]
  aggregate-prevention activity: inhibited the formation of new beta-amyloid aggregates
  aggregate-prevention compared with positive control phenol red (PhR): approximately as effective as the positive control phenol red
[4]
  IC50: 1000 nM
[5]
  IC50: 800 nM
[6]; 0.1 μM
  reduced aggregation of pre-aggregated beta-amyloid (1-42): about 18.6%
[6]; 1.0 μM
  reduced aggregation of pre-aggregated beta-amyloid (1-42): ~51.8%
[6]; 10 μM
  reduced aggregation of pre-aggregated beta-amyloid (1-42): ~64.7%
[6]
  de-aggregation activity (words): de-aggregated beta-amyloid oligomers in a dose-dependent manner at all time points
[6]; listed as curcumin
  de-aggregation activity (words): dose-dependently de-aggregated existing beta-amyloid oligomers
[3]; C 0.01 μM, AD patient
  % Change: −11%
  SAP %: 32.5%
[3]; C 0.1 μM, AD patient
  % Change: −18%
  SAP %: 30.0%
[3]; C 1 μM, AD patient
  % Change: −37%
  SAP %: 23.2%
[3]; control subject, C 0.01 μM
  % Change: −2%
  SAP %: 36.6%
[3]; control subject, C 0.1 μM
  % Change: −7%
  SAP %: 34.6%
[3]; control subject, C 1 μM
  % Change: −12%
  SAP %: 32.9%
